Experiments:
[1] = biological target: T1, Gastrin/cholecystokinin type B receptor (Rattus norvegicus, UniProt P30553); assay: Binding affinity towards gastrin/Cholecystokinin type B receptor from rat brain using [125I]CCK-8 as the radioligand
T1 sequence (P30553 whole entry): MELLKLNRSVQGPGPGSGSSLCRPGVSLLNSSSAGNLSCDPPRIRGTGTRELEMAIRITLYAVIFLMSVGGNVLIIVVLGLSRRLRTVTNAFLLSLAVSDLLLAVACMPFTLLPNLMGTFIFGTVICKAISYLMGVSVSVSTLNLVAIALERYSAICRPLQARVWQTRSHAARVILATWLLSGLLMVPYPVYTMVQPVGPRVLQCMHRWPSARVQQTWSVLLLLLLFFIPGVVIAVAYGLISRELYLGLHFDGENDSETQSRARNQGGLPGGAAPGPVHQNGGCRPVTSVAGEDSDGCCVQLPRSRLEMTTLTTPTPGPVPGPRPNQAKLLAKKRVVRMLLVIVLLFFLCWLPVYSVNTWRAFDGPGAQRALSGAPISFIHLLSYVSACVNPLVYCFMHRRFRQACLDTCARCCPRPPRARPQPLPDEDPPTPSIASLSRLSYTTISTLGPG

[2] = biological target: T2, Cholecystokinin receptor type A (Rattus norvegicus, UniProt P30551); assay: Binding affinity towards Cholecystokinin type A receptor from rat pancreas using [I125]-L-364,718 as the radioligand
T2 sequence (P30551 whole entry): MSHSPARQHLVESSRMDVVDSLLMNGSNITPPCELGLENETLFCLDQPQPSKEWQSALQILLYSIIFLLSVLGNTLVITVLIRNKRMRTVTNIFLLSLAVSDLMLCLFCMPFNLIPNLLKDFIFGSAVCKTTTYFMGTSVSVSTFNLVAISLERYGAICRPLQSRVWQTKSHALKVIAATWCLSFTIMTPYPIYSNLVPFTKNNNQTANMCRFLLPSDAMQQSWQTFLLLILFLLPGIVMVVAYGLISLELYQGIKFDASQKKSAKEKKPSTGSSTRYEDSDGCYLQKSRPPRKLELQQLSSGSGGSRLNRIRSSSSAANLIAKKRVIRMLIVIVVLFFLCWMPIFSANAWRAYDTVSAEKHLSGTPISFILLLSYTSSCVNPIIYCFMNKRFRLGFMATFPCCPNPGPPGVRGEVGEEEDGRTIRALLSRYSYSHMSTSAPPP

Rattus norvegicus [3] = assay: Compound was evaluated for in vivo inhibition of pentagastrin induced gastric acid secretion in rats by 50% after iv administration; format: functional; settings: Stomach
Rattus norvegicus [4] = assay: Compound was evaluated for in vivo inhibition of pentagastrin induced gastric acid secretion in rats after iv administration at dose of 0.1 umol/kg; format: functional; settings: Stomach

Work on `Cc1cccc(NC(=O)NC2N=C(c3ccccn3)c3ccccc3N(CC(=O)c3ccccc3C)C2=O)c1` (centres undefined) yielded an IC50 [1] of 0.13 nM, an IC50 [2] of 980 nM and an ED50 (Rattus norvegicus [3]) of 0.0167 µmol/kg.
`Cc1cccc(NC(=O)NC2N=C(c3nccn3C)c3ccccc3N(CC(=O)C(C)(C)C)C2=O)c1` (centres undefined) gave an IC50 [1] of 4.52 nM, an IC50 [2] of 844 nM and an inhibition in vivo at 0.1 µmol/kg (Rattus norvegicus [4]) of 49%.
Work on `Cc1cccc(NC(=O)NC2N=C(c3cnccn3)c3ccccc3N(CC(=O)C(C)(C)C)C2=O)c1` (centres undefined) yielded an IC50 [1] of 0.88 nM, an IC50 [2] of 1360 nM and an inhibition in vivo at 0.1 µmol/kg (Rattus norvegicus [4]) of 55%.
With `Cc1cccc(NC(=O)NC2N=C(c3ccccn3)c3ccccc3N(CC(=O)C(C)(C)C)C2=O)c1` (centres undefined) the IC50 [1] was 0.44 nM, the IC50 [2] was 470 nM and the ED50 (Rattus norvegicus [3]) was 0.016 µmol/kg.
`Cc1cccc(NC(=O)NC2N=C(c3ccccc3)c3ccccc3N(CC(=O)c3ccccc3C)C2=O)c1` (centres undefined) gave an IC50 [1] of 0.11 nM and an IC50 [2] of 146 nM.
`Cc1cccc(NCNC2N=C(c3ccn[nH]3)c3ccccc3N(CC(=O)C(C)(C)C)C2=O)c1` (centres undefined) was tested, and the IC50 [1] was greater than 100 nM, the IC50 [2] was 105 nM and the inhibition in vivo at 0.1 µmol/kg (Rattus norvegicus [4]) was 18%.
For `Cc1cccc(NC(=O)NC2N=C(c3cccnc3)c3ccccc3N(CC(=O)C3CCCC3)C2=O)c1` (centres undefined), the IC50 [1] was 1.6 nM, the IC50 [2] was 80 nM and the inhibition in vivo at 0.1 µmol/kg (Rattus norvegicus [4]) was 34%.
Work on `Cc1cccc(NC(=O)NC2N=C(c3ccncc3)c3ccccc3N(CC(=O)C3CCCC3)C2=O)c1` (centres undefined) yielded an IC50 [1] of 48 nM, an IC50 [2] greater than 10000 nM and an inhibition in vivo at 0.1 µmol/kg (Rattus norvegicus [4]) of 15%.
In the case of `Cc1cccc(NC(=O)NC2N=C(c3ccccn3)c3ccccc3N(CC(=O)C3CCCC3)C2=O)c1` (centres undefined), the IC50 [1] is reported as 0.12 nM, the IC50 [2] is reported as 2600 nM and the ED50 (Rattus norvegicus [3]) is reported as 0.0189 µmol/kg.
With `Cc1cccc(NC(=O)NC2N=C(c3ncc[nH]3)c3ccccc3N(CC(=O)C(C)(C)C)C2=O)c1` (centres undefined) the IC50 [1] was 8 nM, the IC50 [2] was 2610 nM and the inhibition in vivo at 0.1 µmol/kg (Rattus norvegicus [4]) was 14%.
In the case of `Cc1cccc(NC(=O)NC2N=C(c3ccccc3)c3ccccc3N(CC(=O)C(C)(C)C)C2=O)c1` (centres undefined), the IC50 [2] is reported as 111 nM.
`Cc1cccc(NC(=O)NC2N=C(c3cnc[nH]3)c3ccccc3N(CC(=O)C(C)(C)C)C2=O)c1` (centres undefined) was tested, and the IC50 [1] was 26.1 nM, the IC50 [2] was 232 nM and the inhibition in vivo at 0.1 µmol/kg (Rattus norvegicus [4]) was 25%.
With `Cc1cccc(NCNC2N=C(c3nccs3)c3ccccc3N(CC(=O)C(C)(C)C)C2=O)c1` (centres undefined) the IC50 [1] was 0.8 nM, the IC50 [2] was 433 nM and the inhibition in vivo at 0.1 µmol/kg (Rattus norvegicus [4]) was 58%.
`Cc1cccc(NC(=O)NC2N=C(c3ccncc3)c3ccccc3N(CC(=O)c3ccccc3C)C2=O)c1` (centres undefined) gave an IC50 [1] of 18 nM, an IC50 [2] of 670 nM and an inhibition in vivo at 0.1 µmol/kg (Rattus norvegicus [4]) of 37%.

From ChEMBL document CHEMBL1128905, “Synthesis and biological activity of 5-heteroaryl benzodiazepines: analogues of YM022” (Bioorg Med Chem Lett, 1996)
